# Reference: PubChem BioAssay (NCI)
# Values joined by “and” are separate entries in the source; they are usually repeats but may differ in a detail not shown here. Equal entries are not always repeated.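 All cell lines were grown in 96-well plates and treated with compound for 48 hours. GI50: concentration for 50% inhibition of growth. TGI denotes the concentration required for complete inhibition of growth.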
# System: NCI-H23 lung
# Assay: DTP human tumour cell line panel, 48 h
Compound,TGI,GI50
COC(=O)C(C(=O)c1ccccc1)C(C(=O)C(=O)Nc1ccc(OC)cc1OC)C(=O)C(=O)c1ccc(C)cc1 (stereo not drawn),> 100 µM,
O=C1CCC2(c3ccc(Cl)cc3)Nc3ncccc3N12 (stereo not drawn),> 100 µM,
COc1ccc(Sc2[nH]c(C(C)=O)c3ccccc23)cc1,41.5 µM,14.6 µM
CC12C/C(=C\c3ccccc3)C(=O)C3C1CCCC32,> 100 µM,
OC(CC1SCCCS1)c1ccccc1 (stereo not drawn),> 100 µM,
CCCCOC(=O)CNC(=O)OC/C=C/C#CC#C/C=C/COC(=O)NCC(=O)OCCCC,> 100 µM,> 100 µM
COc1ccc(OC)c2c1[nH]c(=O)c1c3ccccc3cn21,3.04 µM,1.49 µM
COc1cccc2c1C(=O)c1c(O)c3c(c(O)c1C2=O)C[C@@](O)(C(=O)CO)C[C@@H]3OC1CC(N)CC(C)O1 (stereo partly drawn),0.325 µM and 0.259 µM,0.0405 µM and 0.0387 µM
O=C1c2ccccc2C(=O)N1CCn1ccc(NC(c2ccccc2)(c2ccccc2)c2ccccc2)nc1=O,60.2 µM,
CC(C)(C)NNC(=O)CCn1[nH]c(=O)c(Cl)c(Cl)c1=O,> 100 µM,
CN(C)CCNC(=O)c1cccc2ccc(-c3ccc(O)cc3)nc12,10.1 µM and 12.4 µM,
COc1cc(Nc2ncccc2C(=O)NCc2cn(Cc3cccc(Oc4ccccc4)c3)nn2)cc(OC)c1,> 100 µM,6.22 µM
Nc1ccc([N+](=O)[O-])cc1N=C/C=C/c1ccccc1,> 100 µM,18.4 µM
COc1cc(-c2oc(=O)ccc2C#Cc2ccccn2)cc(OC)c1OC,> 29.4 µM,2.4 µM
COc1cccc(C2CC(C)(O)Oc3cc4c(cc32)OCO4)c1O (stereo not drawn),92.9 µM,
CCN(CC)CCCN1CCc2c([nH]c3ccccc23)C1c1cccnc1 (stereo not drawn),> 100 µM,
Cn1cc(C2=C(c3ccc(N)cc3)C(=O)NC2=O)c2ccccc21,> 25 µM,21.6 µM
Cc1cc(Cl)cc(OCCn2cc(F)cn2)c1-c1nc(N)nc2c1CN(C(=O)NCC(C)(F)F)C2,> 100 µM,0.273 µM
COc1ccc(/C=C\[N+](=O)[O-])cc1OC,6.52 µM,2.24 µM
CCN(CC)CCC(CNc1ccnc2cc(Cl)ccc12)c1ccc(Cl)cc1 (stereo not drawn),7.1 µM,1.87 µM
COc1cccc(F)c1C(=O)c1cnc(NC2CCN(S(C)(=O)=O)CC2)nc1N,21.7 µM,3.15 µM
c1ccc2cc(-c3cc4ccccc4s3)ccc2c1,> 100 µM,
CCOC(=O)C(C#N)C1=CC(=O)C(=O)c2ccc(OC)cc21 (stereo not drawn),30.6 µM,
COc1cc(OCc2cccc(-c3ccc(C(O)c4nccs4)cc3)c2C)cc(OC)c1C=O (stereo not drawn),10.2 µM,1.92 µM
COC(=O)c1ccc2c(c1)nc(NC(=O)c1ccccc1)n2CCCc1ccccc1,> 100 µM,5.26 µM
Cc1ccc(S(=O)(=O)Nc2ccccc2C=O)cc1,66.8 µM,
O=C(O)COc1ccc2c(=O)c3sc4c(=O)c5ccccc5c(=O)c4c3c(=O)c2c1,8.57 µM,2.71 µM
Cc1ccc(S(=O)(=O)N(C=O)N=C2CCN(Cc3ccccc3)CC2)cc1,> 100 µM,
CC1(C)S[C@@H]2[C@H](NC(=O)C3(N)CCCCC3)C(=O)N2[C@H]1C(=O)O,> 100 µM,
NC(=O)/C=C/C(=O)c1c(Cl)cccc1Cl,3.01 µM,1.53 µM

# System: OVCAR-5 ovarian
# Assay: DTP human tumour cell line panel, 48 h
Compound,TGI,GI50
COC(=O)C(C(=O)c1ccccc1)C(C(=O)C(=O)Nc1ccc(OC)cc1OC)C(=O)C(=O)c1ccc(C)cc1 (stereo not drawn),> 100 µM,
O=C1CCC2(c3ccc(Cl)cc3)Nc3ncccc3N12 (stereo not drawn),> 100 µM,
COc1ccc(Sc2[nH]c(C(C)=O)c3ccccc23)cc1,53.1 µM,17.3 µM
CC12C/C(=C\c3ccccc3)C(=O)C3C1CCCC32,> 100 µM,
OC(CC1SCCCS1)c1ccccc1 (stereo not drawn),> 100 µM,
CCCCOC(=O)CNC(=O)OC/C=C/C#CC#C/C=C/COC(=O)NCC(=O)OCCCC,> 100 µM,> 100 µM
COc1ccc(OC)c2c1[nH]c(=O)c1c3ccccc3cn21,3.69 µM,1.87 µM
COc1cccc2c1C(=O)c1c(O)c3c(c(O)c1C2=O)C[C@@](O)(C(=O)CO)C[C@@H]3OC1CC(N)CC(C)O1 (stereo partly drawn),0.775 µM and 0.799 µM,0.116 µM
